Measurements as given in patent US11795196B2, “Mitochondria-targeting peptides” (Stealth BioTherapeutics Corp., priority 2017, dated 2023).

Test: 3H D-Arg-DMT-Lys-Phe-NH2 displacement filtration binding assay
Settings: rat heart homogenate, 3H D-Arg-DMT-Lys-Phe-NH2 6-8 nM; range the pharmacological standard had to stay in (quality control)
Experimental: 1) Radioligand Displacement Methods and Procedures
1.1 Rat Heart Homogenate Preparation
Aptuit is committed to the highest standards of animal welfare and is subject to legislation under the Italian Legislative Decree no. 26/2014. All studies were conducted in accordance with national legislation and under authorization issued by the Italian Ministry of Health. The rat heart homogenate aliquots were prepared according to the following procedure. Hearts from 20 Sprague Dawley male rats were dissected out and quickly frozen at −80° C. On the day of homogenate preparation, hearts were thawed at 4° C. Groups of 2 hearts in 2 volumes of ice cold 20 mM HEPES, 1 mM EDTA, pH 7.4 buffer were homogenized with the GentleMACS dissociator (Miltenyi Biotec) using the D02 protocol. The final suspension of 20 hearts was divided in 4 aliquots with additional ice cold buffer up to 200 mL for each tube, homogenized with a Polytron and centrifuged at 24,000g for 40 min at 4° C. (T21 Sorvall, Rotor SL0250T, 13,500 rpm). For each tube, the supernatant was discarded, and the pellet resuspended with 100 mL of ice cold buffer, homogenized and centrifuged. This step was repeated twice. The final pellets were collected together in one tube with 70 mL of buffer. […] The protein content, measured with the Bradford (Bio-Rad) method using BSA as standard was 6.15 mg/mL. […]

## D-Arg-DMT-Lys-Phe-NH2 [SBT-031]
  pIC50, high affinity value of the unlabeled SBT-031 displacement curve: 7.6±0.5
